# Legend:
# [1] = in vivo; cited from earlier work
# [2] = natural forms, even at high doses; cited from earlier work
# [3] = test system: symptoms of drug-induced peripheral neuropathy in multiple myeloma patients on chemotherapy; experiment: Open labelled study of vitamin K2-7 on drug-induced peripheral neuropathy, symptoms scored by VAS; type: in vivo, human; conditions: for VAS Score: scale 0-10
# Protocol: An open labelled study was conducted to evaluate the effect of vitamin K2-7 on drug-induced peripheral neuropathy. Patients who were diagnosed with multiple myeloma and are on chemotherapy treatment for the same, were assessed for the occurrence of symptoms of peripheral neuropathy and then selected. Patients were given 2 capsules of 100 mcg or 350 mcg of vitamin K2-7 along with the ongoing chemotherapy. The evaluation of symptoms of peripheral neuropathy (such as tingling, numbness, burning sensation, muscle cramps etc.) were assessed by VAS score (Schematic 1) from 0 to 10 (nil to unbearable). The scale has been used in various studies to measure the intensity and severity of various symptoms of neuropathy.
# As the patients continued with the therapy, it was observed that the VAS score for all the symptoms decreased to between the range of “1” and “2”. This decrease has happened over a period of 2 to 5 months, depending upon the individual cases treated. […] The examples given in Table 1, summarises the data for 11 patients who were on vitamin K2-7 therapy for drug-induced peripheral neuropathy due to treatment for multiple myeloma. In Table 1, treatment administered refer to the cyclical chemotherapy provided to the patients of multiple myeloma (MM). These cycles are normally of 3 weeks or 21 days period, based on the attending physician's assessment of the patient's condition and tolerance.
# However, vitamin K2-7 was administered daily as two […] capsules.
# Treatment with vitamin K2-7 of subjects continued even after their having reached VAS score of “2”.
# The gradation was judged by Physician based on following criteria. By using Visual Analog Scale, i.e. 0-10 point scale: 0=Absent; 1-3=Mild; 4-6=Moderate; 7-10=Severe.
SMILES,half-life [1],symptoms of toxicity [2],improvement in peripheral neuropathy ([3]; 1 of 11 patients who remained on 100 μg two times a day daily),"VAS Score ([3]; Patient 1, chemotherapy Bortezomib, Cyclophosphamide, Dexamethasone since June 2014, K2-7 from 16 Jun. 15 (350 μg), VAS before 8, scored 10 Dec. 15)","VAS Score ([3]; Patient 2, chemotherapy Lenalidomide, Dexamethasone since 2014, K2-7 from 25 Jun. 15 (350 μg), VAS before 8, scored 05 Nov. 15)","VAS Score ([3]; Patient 3, chemotherapy Lenalidomide, Dexamethasone, Zolendronic Acid since 2015, K2-7 from 19 Aug. 15 (100 μg), VAS before 8, scored 14 Mar. 16)","VAS Score ([3]; Patient 4, chemotherapy Bortezomib, Cyclophosphamide, Dexamethasone since 2015, K2-7 from 09 Jun. 16 (350 μg), VAS before 8, scored 22 Dec. 16)","VAS Score ([3]; Patient 5, chemotherapy Bortezomib, Cyclophosphamide, Dexamethasone since 2016, K2-7 from 23 Feb. 17 (350 μg), VAS before 9, scored 12 Aug. 17)","VAS Score ([3]; Patient 6, chemotherapy Rituximab, Cyclophosphamide, Doxorubicin, Vincristine, Prednisolone since November 2014, K2-7 from 22 May 17 (350 μg), VAS before 9, scored 04 Oct. 17)","VAS Score ([3]; Patient 7, chemotherapy Lenalidomide, Dexamethasone since 2010, K2-7 from 30 Jun. 17 (350 μg), VAS before 8, scored 27 Dec. 17)","VAS Score ([3]; Patient 8, chemotherapy Bortezomib, Cyclophosphamide, Dexamethasone since March 2017, K2-7 from 03 Nov. 17 (350 μg), VAS before 7, scored 03 Apr. 18)","VAS Score ([3]; Patient 9, chemotherapy Bortezomib, Cyclophosphamide, Dexamethasone since 2016, K2-7 from 20 Jul. 16 (350 μg), VAS before 9, scored 11 Jan. 17)","VAS Score ([3]; Patient 10, chemotherapy Lenalidomide, Dexamethasone since 2016, K2-7 from 10 Jun. 17 (350 μg), VAS before 8, scored 10 Jan. 18)","VAS Score ([3]; Patient 11, chemotherapy Dexamethasone since 2016, K2-7 from 25 Mar. 17 (350 μg), VAS before 9, scored 29 Sep. 17)",flare up of symptoms of drug-induced peripheral neuropathy ([3]; continuation of vitamin K2-7 during subsequent chemotherapy cycles),adverse events during the vitamin K2-7 therapy ([3]; multiple myeloma patients on chemotherapy),effect of continued treatment after reaching VAS score of 2 ([3]; treatment continued after VAS score of 2)
"CC1=C(C/C=C(\C)CCC[C@H](C)CCC[C@H](C)CCCC(C)C)C(=O)c2ccccc2C1=O [vitamin K1, phylloquinonc]",1.5 h,,,,,,,,,,,,,,,,
"CC(C)=CCC/C(C)=C/CC/C(C)=C/CC/C(C)=C/CC/C(C)=C/CC/C(C)=C/CC/C(C)=C/CC1=C(C)C(=O)c2ccccc2C1=O [Vitamin K2-7, vitamin K2-7]",more than 72 hours,have not produced symptoms of toxicity,significant improvement,2,2,2,1,2,2,2,2,2,3,2,prevented the flair up,no adverse events were noted,stabilised the VAS Score

# — patent US11628147B2, “Vitamin K2 compositions for the treatment of drug induced neuropathy” (priority 2017, dated 2023)
